Experimental data from PMC5638823, “Structural insights into the competitive inhibition of the ATP-gated P2X receptor channel” (Nature Communications, 2017).

Target: T1, chicken P2X7 receptor (ckP2X7 WT) (Gallus gallus, UniProt A0A8V1A1T0)
T1 construct: gene P2RX7; ckP2X7 WT (NCBI XP_001235163), expressed in HEK-293 cells
Format: cell-based

T1 sequence (A0A8V1A1T0 entry or part of it): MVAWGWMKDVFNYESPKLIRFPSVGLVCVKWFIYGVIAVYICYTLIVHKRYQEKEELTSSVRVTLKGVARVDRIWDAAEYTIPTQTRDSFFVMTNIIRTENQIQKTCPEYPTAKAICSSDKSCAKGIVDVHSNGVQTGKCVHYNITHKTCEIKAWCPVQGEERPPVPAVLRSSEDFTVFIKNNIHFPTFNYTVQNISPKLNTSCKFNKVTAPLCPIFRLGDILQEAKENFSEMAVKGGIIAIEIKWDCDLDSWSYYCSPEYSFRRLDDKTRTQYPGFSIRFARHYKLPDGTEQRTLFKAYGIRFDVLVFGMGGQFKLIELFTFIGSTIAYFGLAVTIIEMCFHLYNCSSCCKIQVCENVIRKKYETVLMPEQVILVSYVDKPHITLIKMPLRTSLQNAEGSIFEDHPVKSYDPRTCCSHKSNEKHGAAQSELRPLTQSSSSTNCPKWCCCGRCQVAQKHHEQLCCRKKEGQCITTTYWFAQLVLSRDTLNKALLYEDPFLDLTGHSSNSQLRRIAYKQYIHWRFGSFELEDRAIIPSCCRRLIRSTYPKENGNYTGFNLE

## Nc1ncnc2c1ncn2[C@@H]1O[C@H](COP(=O)(O)OP(=O)(O)OP(=O)(O)O)[C@@H](O)[C@H]1O [ATP]
  whole-cell patch clamp, ATP-evoked currents in transfected HEK-293 cells: ATP activated biphasic currents and TNP-ATP blocked ATP-dependent currents
